The text below walks through data of patent US7195888B2, “Calcium-independent phospholipase A2 induces ischemic ventricular arrhythmias and decreases infarction size” (Washington University in St. Louis, priority 2002, dated 2007).

Entries after “also recorded” stand apart in the source; their conditions may differ.

One test has as its system ischemic hearts. The settings on record: previously shown; cited from earlier work.
Test [1] concerns Langendorf-perfused mouse hearts. The test can be described thus: Ischemia-induced ventricular arrhythmias (PVCs, VT) after LAD coronary ligation in isolated Langendorf-perfused mouse hearts. The settings on record: for frequency of PVCs (PVC frequency/5 min interval) after coronary ligation: BEL 10 μM pretreatment from 5 min before ligation, 30 min ischemia. As to the method: Data are presented as the +/− standard deviation. A, frequency of PVCs in wild type control mouse hearts (open bars, n=19) and in TGiPLA2β transgenic mouse hearts (closed bars, n=24) in the absence of BEL pretreatment (−BEL). Total PVCs were recorded in 5 minute intervals (0–5, 5–10, 10–15, 15–20, 20–25, and 25–30 min) after ligation of the LAD coronary artery in TGiPLA2β and wild-type control Langendorf hearts. The mean PVC frequency per interval (PVC frequency/5 min interval) was then plotted vs time interval after coronary ligation. […] B, The effect of BEL pretreatment (+BEL) on PVC frequency measured in 5 min intervals after coronary litigation. […] C, Frequency histogram showing total episodes of VT in TGiPLA2β transgenics (closed bars, n=24) vs wild-type control hearts (open bars, n=19) with (+) and without (−) BEL pretreatment.
To determine the role of iPLA2β in arrhythmogenesis during acute cardiac ischemia, a Langendorf perfused heart preparation was employed^6. […] The frequency of spontaneous PVCs was higher in hearts expressing iPLA2β compared with controls at each 5 minute time interval examined during 30 minutes of ischemia (p=0.0003 vs WT by MANOVA) (FIG. 4). Multiple episodes of non-sustained VT occurred in TGiPLA2β hearts (9 of 24 hearts) compared with a single episode in one WT heart (1 of 19 hearts) (p=0.002).
Isolated perfused mouse heart preparations were utilized as previously referenced (1). Briefly, a traditionally accepted ex vivo intact model of acute ischemia was studied. The left anterior descending (LAD) coronary artery was occluded in isolated perfused hearts. Mice were anesthetized with sodium pentobarbital (150 mg/kg IP), and their hearts were rapidly excised and placed in oxygenated Krebs-Henseleit buffer containing (in mmol/L): NaCl 118.3, KCl 2.7, MgSO4 1.0, KH2PO4 1.4, NaHCO3 29.0, CaCl2 3.4, and glucose 10, plus insulin 70 mU/L and BSA 2.8%, at 37° C. Hearts were perfused by retrograde aortic flow with oxygenated buffer at 37° C. Flow rates were adjusted to maintain constant perfusion pressures of 45 to 50 mm Hg. Hearts were simultaneously superfused in a bath containing oxygenated buffer at 37° C. to maintain constant temperature.(1) Circulation 101:547–552 (2000).
Ischemic Studies with Isolated Langendorf-Perfused Mouse Hearts. Ventricular tachyarrhythmias induced by acute ischemia were characterized with use of an isolated, Langendorf-perfused heart preparation as described previously by Lerner et al^6 which is incorporated herein in its entirety by reference. Frequencies of spontaneous arrhythmias (PVCs, and episodes of VT) were counted for 30 min after coronary ligation and tablulated as PVC frequency per 5 minute intervals. A run of ventricular tachycardia was defined as 10 or more beats with a cycle length <100 msec. After 30 min, hearts were perfused through the aortic catheter with 1% Evans blue dye. To determine the effects of BEL on induction of arrhythmias after ischemia, hearts were perfused with buffer containing 10 μM BEL beginning 5 min before coronary ligation and during ischemia. All studies were randomized and blinded.

Test [2] deals with iPLA2β. The test can be described thus: Acylcarnitine content of ischemic zone of Langendorf perfused hearts by ESI mass spectrometry. The settings on record: BEL 10 uM for 5 min, 15 min ischemia. Set-up: species or system mouse. As to the method: The ischemia-induced increase in acylcarnitines in wild type mice is inhibited by BEL. Moreover, iPLA2β transgenic mice sustain a dramatic increase in acylcarnitine content during myocardial ischemia in comparison to wild type mice.
Next, ischemia was induced by ligating a marginal branch of the LAD coronary artery and ischemia was induced for 15 minutes. Aliquots of the ischemic zone were taken and rapidly frozen. After addition of internal standard, aliquots of frozen tissue were extracted and analyzed for acylcarnitine content by ESI mass spectrometry by comparisons to standard utilizing methods previously described.

A further test deals with ischemic myocardium. In words: Infarct size after ischemia in hearts overexpressing iPLA2β. The settings on record: iPLA2β overexpression, BEL treatment. Set-up: species or system mouse. As to the method:
Control or iPLA2β transgenic mice were perfused retrograde through the aorta for an equilibration interval prior to the induction of ischemia by ligating the LAD coronary artery. After 15 min. of ischemia the tissue was fixed and the magnitude of infarcted tissue was assessed on a 1 to 5 scale. […] Moreover, the deliberate overexpression of iPLA2β increases infarct size which can be reduced with BEL treatment. Thus the discovery clearly for the first time defines a evidences iPLA2β as a pharmacologic target in any aspect of phospholipase work by discriminating iPLA2β activity from other phospholipases by the traditional pharmacologic criteria of knockdown, inhibition and rescue by inhibition of the species-specific knock down pathophysiology. The evidence is this proof of concept thereby formally provides an intact, functional organ model to test the effect of pharmacologic agents on ischemia induced arrhythmias by inhibition of iPLA2β regulatory networks. […] Collectively, the inventor discovered herein a seminal discovery in that it defines and evidences for the first time in molecular detail a protein target, iPLA2β, for prevention and treatment of ventricular arrhythmias in ischemic zones and identifies a new way to screen for additional targets.

The target in test [3] is T1, iPLA2β (Homo sapiens, UniProt O60733).
T1 sequence (O60733 1-806): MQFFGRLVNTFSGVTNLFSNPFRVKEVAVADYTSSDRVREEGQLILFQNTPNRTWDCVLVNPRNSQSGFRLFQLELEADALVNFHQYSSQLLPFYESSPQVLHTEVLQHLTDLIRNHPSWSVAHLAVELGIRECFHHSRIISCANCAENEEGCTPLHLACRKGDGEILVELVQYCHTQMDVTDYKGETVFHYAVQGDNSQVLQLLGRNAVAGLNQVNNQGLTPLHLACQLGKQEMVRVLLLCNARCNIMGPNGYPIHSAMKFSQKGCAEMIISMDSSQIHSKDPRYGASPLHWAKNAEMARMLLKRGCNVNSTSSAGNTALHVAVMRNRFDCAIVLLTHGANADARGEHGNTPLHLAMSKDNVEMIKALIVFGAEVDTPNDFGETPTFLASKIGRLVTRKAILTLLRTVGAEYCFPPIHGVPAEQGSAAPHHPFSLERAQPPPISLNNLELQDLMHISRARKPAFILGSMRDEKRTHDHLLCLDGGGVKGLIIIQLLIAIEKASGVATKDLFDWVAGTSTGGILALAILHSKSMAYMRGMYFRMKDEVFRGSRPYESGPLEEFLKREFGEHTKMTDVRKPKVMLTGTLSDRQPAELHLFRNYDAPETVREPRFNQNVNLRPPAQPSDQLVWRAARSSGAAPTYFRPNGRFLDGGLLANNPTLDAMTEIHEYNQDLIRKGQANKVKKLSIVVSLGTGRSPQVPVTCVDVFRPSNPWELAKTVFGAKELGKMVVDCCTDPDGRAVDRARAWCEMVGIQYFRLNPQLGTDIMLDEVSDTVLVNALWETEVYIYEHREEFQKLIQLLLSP
The settings on record: racemic BEL; cited from earlier work.

For test [4], the system named is iPLA2β. In words: ESI/MS quantification of fatty acid release into effluent and accumulation of fatty acids and lysolipids in ischemic zones of Langendorf perfused hearts. Also noted: species or system mouse. The settings on record: hearts from transgenic mice, 15 min LAD occlusion, BEL pretreatment. As to the method:
A, Nonesterified fatty acid (NEFA) release obtained from 15 in of effluent from control or ischemic Langendorf hearts. *P<0.001 B, NEFA mass in ischemic heart tissue from WT and TGiPLA2β hearts. *P<0.01. C, Lysophosphatidylcholine (LPC) mass in ischemic tissue from WT and TGiPLA2β hearts. *P<0.0001. Release of NEFA into the effluents (a) and accumulation of NEFA (b) and LPC (c) in ischemic tissue from Langendorf-perfused hearts [WT (light bars) and TGiPLA2β (dark bars)] were measured in the absence or presence of LAD occlusion (ischemia) in the absence (−) or presence […] of BEL pretreatment as indicated.
To determine if ischemia activates iPLA2β catalyzed hydrolysis of lipids in intact myocardium, ESI/MS (electrospray—mass spectrometry) was utilized to quantify the release of fatty acids into the effluent and the accumulation of fatty acids and lysolipids in ischemic zones^19,20. After 15 min of LAD occlusion, increased release of fatty acids was present in the effluents from perfused hearts and both fatty acids and lysolipids accumulated in the ischemic zone of hearts from TG iPLA2β mice but not WT mice (FIG. 3a). […] The concurrent activation of iPLA2β during ischemia in conjunction with the generation of malignant ventricular arrhythmias and their rescue by inhibition of the expressed iPLA2β transgene formally fulfills traditional criteria for proof of a cause and effect relationship between two phenomena (i.e., malignant arrhythmias are not present when virtually no iPLA2β activity is present (WT mice) and malignant arrhythmias are manifest during activation of the expressed iPLA2β transgene by ischemia and arrhythmias are ablated by mechanism-based inhibition of expressed iPLA2β enzymic activity).
Electrospray Ionization Mass Spectrometry of Lipids from Wild type and Transgenic Mouse Myocardium. Lipids were extracted from mouse myocardium (˜50 mg) by a modified Bligh and Dyer technique utilizing 50 mM LiCl in the aqueous layer in the presence of internal standards selected based on their lack of demonstrable endogenous molecular ions in that region^19,20. ESI/MS analysis was performed utilizing a Finnigan TSQ-7000 Spectrometer as previously described^19,20.

For the next test, the target named is T2, iPLA2γ (Homo sapiens, UniProt Q9NP80).
T2 sequence (Q9NP80 1-782): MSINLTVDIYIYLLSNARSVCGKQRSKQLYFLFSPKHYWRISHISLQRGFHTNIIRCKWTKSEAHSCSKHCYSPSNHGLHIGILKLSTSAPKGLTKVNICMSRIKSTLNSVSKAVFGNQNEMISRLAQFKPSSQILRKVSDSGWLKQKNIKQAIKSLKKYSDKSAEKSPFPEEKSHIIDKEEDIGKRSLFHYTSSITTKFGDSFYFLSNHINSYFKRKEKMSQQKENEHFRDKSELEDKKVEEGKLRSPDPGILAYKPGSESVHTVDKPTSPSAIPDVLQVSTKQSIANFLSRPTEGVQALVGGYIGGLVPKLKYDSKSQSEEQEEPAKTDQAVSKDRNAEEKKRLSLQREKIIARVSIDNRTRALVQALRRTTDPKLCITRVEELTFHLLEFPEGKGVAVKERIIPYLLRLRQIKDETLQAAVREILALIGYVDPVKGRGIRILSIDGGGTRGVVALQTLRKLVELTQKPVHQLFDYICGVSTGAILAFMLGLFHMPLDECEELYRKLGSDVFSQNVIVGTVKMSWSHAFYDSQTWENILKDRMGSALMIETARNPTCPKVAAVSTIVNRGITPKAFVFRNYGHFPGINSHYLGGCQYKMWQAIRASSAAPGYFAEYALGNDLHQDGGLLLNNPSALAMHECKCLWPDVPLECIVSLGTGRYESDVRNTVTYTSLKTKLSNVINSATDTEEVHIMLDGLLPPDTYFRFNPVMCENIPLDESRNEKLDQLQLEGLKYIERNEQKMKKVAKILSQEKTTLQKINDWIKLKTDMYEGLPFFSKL
The settings on record: racemic BEL; cited from earlier work.

The mark [5] stands for this setting: TGiPLA2β hearts, BEL 10 μM pretreatment, LAD ligation.
[6] abbreviates: listed as phospholipase A2 mechanism-based inhibitor.

Consider `CCOC(=O)[C@@]1(CCCCCCOc2ccc(Cl)cc2)CO1` [Etomoxir], for which, in the test on ischemic hearts, the “arrhythmias in ischemic hearts” value is reported as “inhibit arrhythmias”.
Regarding `O=C1O/C(=C/Br)CCC1c1cccc2ccccc12` (stereo not drawn) [BEL, (E)-6-(bromomethylene)-3-(1-naphthalenyl)-2H-tetrahydropyran-2-one], the entries for the “frequency of PVCs (PVC frequency/5 min interval) after coronary ligation” value in test [1] (TGiPLA2β hearts) and in test [1] (WT control hearts) were “inhibited the frequency of PVCs; also recorded: significant decrease in PVC frequency” and “inhibited the frequency of PVCs; also recorded: reduced PVC frequency”, respectively. The “episodes of ventricular tachycardia / malignant ventricular tachyarrhythmias” value in test [1] (setting [5]) is on record as “completely abolished VT; also recorded: rescue of ischemia-induced ventricular tachyarrhythmias; also recorded: significant reduction of VT episodes”; in test [1] (TGiPLA2β hearts, BEL 10 μM pretreatment, LAD ligation, listed as phospholipase A2 mechanism-based inhibitor) it was “rescued transgenic hearts from malignant ventricular dysrhythmias”. In addition, the “hearts with VT / hearts studied” value in test [1] (setting [5]) is 0/10. Also, the “ischemia-induced increase in acylcarnitines” value was “inhibitable; also recorded: inhibited” in the test on iPLA2β [2] (iPLA2β transgenic hearts) and “major portion of acyl carnitine accumulation is BEL inhibitable; also recorded: inhibited” in the test on iPLA2β [2] (wild type (control) hearts). Moreover, the infarct size entry with ischemic myocardium was “reduced”. The “inhibition of iPLA2β” value on iPLA2β [3] is “inhibits”. Also, the “accumulation of lysolipids in ischemic zones” value is on record as “nearly completely ablated” with iPLA2β [4] and “completely ablated” in the test on iPLA2β [4] (setting [6]). Moreover, the “release of fatty acids” value is reported as “nearly completely ablated” in the test with iPLA2β [4] and “completely ablated” in the test on iPLA2β [4] (setting [6]). Further, the “inhibition of iPLA2γ” value on iPLA2γ is on record as “inhibits”.
